Drawing on ChEMBL document CHEMBL1154597, “1,1'-Disubstituted ferrocenes as molecular hinges in mono- and bivalent dopamine receptor ligands” (J Med Chem, 2009), this text covers Ki for two molecules.

pKi: −log10 of the molar value.

The target in one assay is D(3) dopamine receptor (Homo sapiens, UniProt P35462). As to the kind of experiment: Displacement of [3H]spiperone from human cloned dopamine D3 receptor expressed in CHO cells. Format: cell-based.
The next assay concerns the target D(1A) dopamine receptor (Sus scrofa, UniProt P50130). As to the kind of experiment: Displacement of [3H]SCH23390 from dopamine D1 receptor in pig striatal membranes. The format is cell membranes, Striatum, Membrane. A general note: In a radioligand displacement assay an active substance lowers the binding of a labelled ligand.
Assay [1] concerns the target T1, D(2) dopamine receptor (Homo sapiens, UniProt P14416). Nature of the assay: Displacement of [3H]spiperone from human cloned dopamine D2long receptor expressed in CHO cells. Format: cell-based.
The nature of assay [2]: Displacement of [3H]prazosin from adrenergic alpha1 receptor in pig striatal membranes. The format is cell membranes, Sus scrofa, Striatum, Membrane.
The nature of assay [3]: Displacement of [3H]WAY100635 from 5HT1A receptor in pig striatal membranes. Format: cell membranes, Sus scrofa, Striatum, Membrane.
Another assay concerns the target T2, D(4) dopamine receptor (Homo sapiens, UniProt P21917).
T2 sequence (P21917 whole entry): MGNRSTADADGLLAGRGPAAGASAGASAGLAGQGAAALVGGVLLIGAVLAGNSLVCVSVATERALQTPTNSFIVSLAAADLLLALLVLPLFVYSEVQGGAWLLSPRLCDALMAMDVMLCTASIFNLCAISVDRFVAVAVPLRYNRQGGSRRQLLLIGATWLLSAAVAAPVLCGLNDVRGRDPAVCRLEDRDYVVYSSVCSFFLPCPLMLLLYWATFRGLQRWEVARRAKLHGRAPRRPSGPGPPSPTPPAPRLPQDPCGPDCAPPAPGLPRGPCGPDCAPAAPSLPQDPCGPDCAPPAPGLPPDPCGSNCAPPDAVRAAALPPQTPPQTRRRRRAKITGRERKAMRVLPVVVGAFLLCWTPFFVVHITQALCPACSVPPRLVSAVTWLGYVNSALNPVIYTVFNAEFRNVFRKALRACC
Nature of the assay: Displacement of [3H]spiperone from human cloned dopamine D4.4 receptor expressed in CHO cells. Format: cell-based.

Assay [4] addresses 5-hydroxytryptamine receptor 2A (Sus scrofa, UniProt P50129). As to the kind of experiment: Displacement of [3H]ketanserin from 5HT2 receptor in pig striatal membranes. Format: cell membranes, Striatum, Membrane.
Assay [5] addresses T1, D(2) dopamine receptor. Nature of the assay: Displacement of [3H]spiperone from human cloned dopamine D2short receptor expressed in CHO cells. The format is cell-based.

As a reminder, the pKi is −log10 of the Ki, conventionally taken in molar units. A high value points to a low Ki.

T1 sequence (P14416 whole entry): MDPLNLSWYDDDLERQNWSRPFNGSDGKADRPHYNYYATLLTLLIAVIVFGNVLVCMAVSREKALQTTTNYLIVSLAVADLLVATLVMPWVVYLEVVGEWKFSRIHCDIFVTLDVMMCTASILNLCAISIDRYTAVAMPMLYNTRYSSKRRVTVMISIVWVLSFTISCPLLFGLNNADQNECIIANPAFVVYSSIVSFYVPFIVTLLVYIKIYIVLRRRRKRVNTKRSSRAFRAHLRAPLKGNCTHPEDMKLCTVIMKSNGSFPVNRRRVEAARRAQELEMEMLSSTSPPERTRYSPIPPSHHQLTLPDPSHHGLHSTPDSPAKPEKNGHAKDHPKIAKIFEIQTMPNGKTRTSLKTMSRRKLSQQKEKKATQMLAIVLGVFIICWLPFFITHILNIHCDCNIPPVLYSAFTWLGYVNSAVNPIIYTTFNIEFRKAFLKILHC
D(1A) dopamine receptor, sequence (P50130 whole entry): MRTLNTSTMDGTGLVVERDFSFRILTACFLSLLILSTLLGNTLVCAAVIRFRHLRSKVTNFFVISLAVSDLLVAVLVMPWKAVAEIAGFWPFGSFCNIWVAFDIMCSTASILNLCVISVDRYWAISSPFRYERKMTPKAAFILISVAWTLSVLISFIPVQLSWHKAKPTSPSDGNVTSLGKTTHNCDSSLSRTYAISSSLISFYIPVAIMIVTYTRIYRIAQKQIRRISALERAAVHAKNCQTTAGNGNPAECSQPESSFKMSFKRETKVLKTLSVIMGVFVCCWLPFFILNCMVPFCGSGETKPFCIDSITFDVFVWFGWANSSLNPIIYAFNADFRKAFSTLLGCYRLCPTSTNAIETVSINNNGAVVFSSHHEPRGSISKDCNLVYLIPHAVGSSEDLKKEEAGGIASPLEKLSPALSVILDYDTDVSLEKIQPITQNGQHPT
5-hydroxytryptamine receptor 2A, sequence (P50129 whole entry): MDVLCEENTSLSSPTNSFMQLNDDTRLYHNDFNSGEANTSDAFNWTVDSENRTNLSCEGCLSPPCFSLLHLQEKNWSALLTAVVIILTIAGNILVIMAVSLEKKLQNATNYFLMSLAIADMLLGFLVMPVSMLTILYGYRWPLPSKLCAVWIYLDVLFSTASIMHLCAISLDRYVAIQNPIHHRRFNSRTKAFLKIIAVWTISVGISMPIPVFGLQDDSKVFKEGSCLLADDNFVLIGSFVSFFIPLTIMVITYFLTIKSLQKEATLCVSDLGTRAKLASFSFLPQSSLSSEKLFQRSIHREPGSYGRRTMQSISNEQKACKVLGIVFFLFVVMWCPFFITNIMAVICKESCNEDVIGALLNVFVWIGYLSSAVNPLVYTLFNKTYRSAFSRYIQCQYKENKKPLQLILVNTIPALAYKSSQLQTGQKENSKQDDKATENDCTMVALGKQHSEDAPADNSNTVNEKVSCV
D(3) dopamine receptor, sequence (P35462 whole entry): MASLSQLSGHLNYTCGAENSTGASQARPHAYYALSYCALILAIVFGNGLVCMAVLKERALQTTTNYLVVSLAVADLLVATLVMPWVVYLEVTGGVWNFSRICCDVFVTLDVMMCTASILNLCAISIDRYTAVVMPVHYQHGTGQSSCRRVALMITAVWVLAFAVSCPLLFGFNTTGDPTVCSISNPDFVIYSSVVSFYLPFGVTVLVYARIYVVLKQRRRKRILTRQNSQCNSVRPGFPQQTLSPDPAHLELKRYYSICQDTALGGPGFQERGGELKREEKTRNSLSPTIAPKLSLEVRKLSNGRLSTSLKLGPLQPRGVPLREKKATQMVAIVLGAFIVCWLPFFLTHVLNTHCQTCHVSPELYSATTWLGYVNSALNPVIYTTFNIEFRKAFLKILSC

Regarding `COc1ccccc1N1CCN(CCCCNC(=O)c2ccc(-c3cn(Cc4ccc(-c5ccc(Cn6cc(-c7ccc(C(=O)NCCCCN8CCN(c9ccccc9OC)CC8)cc7)nn6)cc5)cc4)nn3)cc2)CC1`, the pKi at D(3) dopamine receptor is 7.15; on D(1A) dopamine receptor, 5.02; on D(2) dopamine receptor [1], 5.70; in assay [2] it was 6.64; in assay [3], 5.92; at D(4) dopamine receptor it was 6.07. For the same molecule, the negative-log Ki (pKi) was 5.77 in assay [4] and 6.11 at D(2) dopamine receptor [5].
Regarding `COc1ccccc1N1CCN(CCCCNC(=O)c2cccc(-c3cn(Cc4ccc(-c5ccc(Cn6cc(-c7cccc(C(=O)NCCCCN8CCN(c9ccccc9OC)CC8)c7)nn6)cc5)cc4)nn3)c2)CC1`, the pKi was 6.64 on D(3) dopamine receptor; 5.47 at D(1A) dopamine receptor; 4.82 on D(2) dopamine receptor [1]; 6.46 in assay [2]; 5.60 in assay [3]; 5.47 on D(4) dopamine receptor. For the same molecule, the results for the pKi (in assay [4]; at D(2) dopamine receptor [5]) were 5.47 and 5.00, respectively.
